The test system of test [1] is Tel22 (DNA, G4) AGGGTTAGGGTTAGGGTTAGGG
Briefly: ITC. As to conditions: 20 mM KCl; 10 mM Tris, pH 7.5, 37°C; one set of equivalent sites.

Test [2] relates to wtTel26 (DNA, G4) TTAGGGTTAGGGTTAGGGTTAGGGTT
Put plainly: ITC. As to conditions: 20 mM KCl; 10 mM Tris, pH 7.5, 25°C; one set of equivalent sites.

Test [3] relates to Tel26 (DNA, G4) AAAGGGTTAGGGTTAGGGTTAGGGAA
Briefly: ITC. As to conditions: 20 mM KCl; 10 mM Tris, pH 7.5, 25°C; site 1 of 2; two sequential sites.

The subject of test [4] is scT22 (DNA, single strand) GGATGTGAGTGTGAGTGTGAGG
Briefly: CD titration. As to conditions: 20 mM KCl; 10 mM Tris, pH 7.5, 25°C; 4 µM DNA; two bases per metal complex; per base.

For test [5], the system named is Tel22 (DNA, G4) AGGGTTAGGGTTAGGGTTAGGG
Put plainly: CD melting at 290 nm. As to conditions: 20 mM KCl; 10 mM Tris, pH 7.5; 4 µM DNA, complex at 2:1 molar ratio.

The subject of test [6] is wtTel26 (DNA, G4) TTAGGGTTAGGGTTAGGGTTAGGGTT
Briefly: CD melting at 290 nm. As to conditions: 20 mM KCl; 10 mM Tris, pH 7.5; 4 µM DNA, complex at 2:1 molar ratio.

Test [7] concerns Tel26 (DNA, G4) AAAGGGTTAGGGTTAGGGTTAGGGAA
Briefly: CD melting at 290 nm. As to conditions: 20 mM KCl; 10 mM Tris, pH 7.5; 4 µM DNA, complex at 2:1 molar ratio.

The values that follow come from publication PMC3596309 (2013).

In the case of `CN(C)CCNCc1ccnc2c1ccc1cccnc12.CN(C)CCNCc1ccnc2c1ccc1cccnc12.[Ni+2]`, the Ka was 35.1 ± 0.6 × 10^5 M^-1 in test [1], 4.7 ± 1.7 × 10^5 M^-1 in test [2], 8.7 ± 3.3 × 10^5 M^-1 in test [3] and 270000 M⁻¹ in test [4]. Further, the shift in melting temperature (ΔTm) worked out at 10.4 °C in test [5], 15.2 °C in test [6] and 13.8 °C in test [7].

Broadly, the ΔTm is the change in melting temperature against a reference sample.
